The source of these data is PMC10458458, “Characterization of Anticancer Effects of the Analogs of DJ4, a Novel Selective Inhibitor of ROCK and MRCK Kinases” (Pharmaceuticals, 2023).

Experiment [1] relates to MDA-MB-231 breast cancer cells. The experiment in a line: Live/dead cell count (Muse). It is filed as cell-based, human. The note with it: 24 h. How it is done:
Figure 2 DJ4 reduces cell survival and inhibits colony forming ability of the cancer cells. (A) Different NSCLC cells were plated in a 96-well plate to confluence and then treated for 72 h. Cytotoxicity was assessed by MTT assay. The error bars indicate SEM of triplicates. (B) To assess cytotoxicity of DJ4 in breast cancer cells, MDA-MB-231 cells were treated for 24 h with indicated concentrations of DJ4. Percentage of live cells were counted using Muse^TM Live/Dead reagent and analyzed by Muse^TM cell analyzer. Error bars indicate SEM. n = 2. * p < 0.05. (C) DJ4 inhibits colony forming ability of A549 cells treated for 48 h. After a 48-h treatment, cells were seeded with number of cells mentioned in the table and were allowed to grow and form colonies. At the end of 14 days, colonies were stained and counted. Percent surviving fraction was calculated. The figure is the representative of the replicates. (D) The data are summarized in the table and represent the average of three replicates. […]
MDA-MB-231 cells were treated for 24 h with 1 µM, 2.5 µM, 5 µM, and 10 µM concentrations of DJ4. […] Cell number and cell viability were analyzed using Muse^TM Cell Viability reagent and Muse^TM (Millipore, Inc. Burlington, MA, USA) cell analyzer as per the manufacturer’s instructions.

In experiment [2] the test system is A549 lung cancer cells. Description: Cell cycle analysis (propidium iodide, flow cytometry). It is filed as cell-based, human. The note with it: A549, serum-starved, 24 h (vehicle 1%). The method, then:
Since DJ4 inhibits phosphorylation of MLC, we hypothesized that DJ4-treated cells are unable to complete cell division and arrest in G2/M phase of the cell cycle. To test this hypothesis, A549 lung cancer cells were synchronized in the G1 phase by serum-starvation for 24 h. After serum replenishment, cells were further treated with 2.5 µM, 5 µM, and 10 µM DJ-4 for 16-, 24-, and 48 h (Figure 3A). Before treatment with DJ4 (time zero), about 80% of cells were in the G1 phase, 20% in the G2/M phase, and essentially none in the S phase. In vehicle treated control cells, there were minimal cells in the G2/M phase at both 24 h (1%) and 48 h (8%). […] At 48 h, cells remained arrested in the G2/M phase, but also, there was an increase in the sub-G1 cell population indicating apoptotic cells.
Figure 3 DJ4 arrests A549 lung cancer cells in G2/M phase and induces apoptotic cell death in NSCLC and breast cancer cells. (A). A549 cells were serum-starved for 24 h and treated for 16 h, 24 h, and 48 h with indicated concentrations. Propidium iodide stained cells were analyzed for DNA content by flow cytometry. The cell cycle graphs indicate distribution of cells in the G1, S, and G2/M phases of cell cycle. Sub-G1 cell population indicates apoptotic cells. (B). Annexin V staining of A549 cells. The cells were treated with indicated concentrations and durations. Percent annexin V + cells were analyzed using Muse^TM cell analyzer. Error bars indicate SEM. n = 2. (C). Analysis of annexin V + ve and mitochondrial membrane depolarized cells. MDA-MB-231 cells were treated for 48 h at the indicated concentrations. Staurosporin (2.5 µM) was used as a positive control. Error bars indicate SEM. n = 2. * p < 0.05. […] These are best readings and their digits are not certain: DMSO 7 and 14; DJ4 1.25 μM 10 and 22; DJ4 2.5 μM 23 and 40; Staurosporin 12 and 40 / Panel B, 24 h: the ** is read as belonging to the 5 μM bar (10), not the 2.5 μM bar (8); this is not fully certain […]
(In general: A flow cytometer gives signals particle by particle.)

For the compound `O=C1N/C(=N\CCc2ccccc2)S/C1=C/c1c[nH]c2ncccc12` [DJ4], the cell death is given as 29% in experiment [1] (MDA-MB-231, 1 µM) and 47% in experiment [1] (MDA-MB-231, 10 µM). The G2/M cell population was found to be 31% in experiment [2] (2.5 µM), 42% in experiment [2] (5 µM) and 45% in experiment [2] (10 µM).
